From patent publication US20110092445A1, “Amyloid ß peptide analogues, oligomers thereof, processes for preparing and composi-tions comprising said analogues or oligomers, and their uses” (Abbott Laboratories, priority 2008, published 2011)
Where no end group is shown, it is not given here.

Legend:
[1] = tested on: Aβ globulomer-specific antibody 7C6; assay: Dot blot analysis with monoclonal antibody 7C6; type: binding, murine; conditions: FIG. 8A
Text: (§1) 1. (14C, 37C) N-Met Aβ(1-42) oligomer of example 4a 2. Thermolysin truncated (14C, 37C) N-Met Aβ(1-42) oligomer of example 5a 3. (15C, 36C) N-Met Aβ(1-42) oligomer of example 4b 4. Thermolysin truncated (15C, 36C) N-Met Aβ(1-42) oligomer of example 5b 5. (16C, 35C) N-Met Aβ(1-42) oligomer of example 4c 6. Thermolysin truncated (16C, 35C) N-Met Aβ(1-42) oligomer of example 5c 7. (17C, 34C) N-Met Aβ(1-42) oligomer of example 4d 8) Thermolysin truncated (17C, 34C) N-Met Aβ(1-42) oligomer of example 5d 9. (18C, 33C) N-Met Aβ(1-42) oligomer of example 4e 10. Thermolysin truncated (18C, 33C) N-Met Aβ(1-42) oligomer of example 5e 11. (19C, 32C) N-Met Aβ(1-42) oligomer of example 4f 12. Thermolysin truncated (19C, 32C) N-Met Aβ(1-42) oligomer of example 5f 13. (20C, 31C) N-Met Aβ(1-42) oligomer of example 4g 14. Thermolysin truncated (20C, 31C) N-Met Aβ(1-42) oligomer of example 5g 15. (21C, 30C) N-Met Aβ(1-42) oligomer of example 4h 16. Thermolysin truncated (21C, 30C) N-Met Aβ(1-42) oligomer of example 5h 17. (22C, 29C) N-Met Aβ(1-42) oligomer of example 4i 18. Thermolysin truncated (22C, 29C) N-Met Aβ(1-42) oligomer of example 5i 19. Aβ(1-42) globulomer of example 4j 20. Aβ(1-42) thermolysin truncated globulomer of example 5j
(§2) • Serial dilution of Aβ antigens in columns 1-20 in 20 mM NaH2PO4, 140 mM NaCl, pH 7.4+0.2 mg/ml BSA • 1) 10 pmol/μl • 2) 1 pmol/μl • 3) 0.1 pmol/μl • 4) 0.01 pmol/μl • 5) 0.001 pmol/μl
(§3) • TBS • 25 mM Tris/HCl-buffer pH 7.5 • +150 mM NaCl • TTBS • 25 mM Tris/HCl-buffer pH 7.5 • +150 mM NaCl • +0.05% Tween 20 • PBS+0.2 mg/ml BSA • 20 mM NaH2PO4 buffer pH 7.4 • +140 mM NaCl • +0.2 mg/ml BSA
(§4) • Either Rabbit sera samples or mouse monoclonal antibodies were used as Antibody solution I and prepared as in the following: • Rabbit sera samples (1:200 diluted in 20 ml 1% low fat milk in TBS) • Mouse monoclonal antibodies (diluted to 0.2 μg/ml in 20 ml 1% low fat milk in TBS)
(§5) • In the case Antibody solution I was Rabbit sera samples then Antibody solution II was Anti-Rabbit-AP. […]

[2] = tested on: polyclonal rabbit serum 5599; assay: Dot blot analysis with rabbit polyclonal antibody 5599; type: binding; conditions: FIG. 8B; serum shows high general background
Text: as §1, §2, §3, §4, §5

[3] = tested on: globulomer-specific monoclonal antibody 5F7; assay: Direct ELISA, binding of globulomer-specific mAb 5F7 to coated oligomer; set-up: species or system murine; conditions: FIG. 3A; for binding of the globulomer-specific monoclonal antibody 5F7 (direct ELISA response): N-Met Aβ(1-42) globulomer compared with mutant oligomer
Text: Materials: Microtiterplates were Nunc Immuno Plate, Maxi-Sorb Surface, flat bottom, (Catalogue #439454). The conjugate (secondary antibody) was Donkey anti-mouse HRPO conjugate, Jackson Immuno Research, (Catalogue #715-035-150). The HRPO Substrate was 3,3′,5′5′-Tetramethylbenzidine Liquid substrate (TMB), Sigma, (Catalogue #T4444). Non-fat Dry Milk (NFDM), was from BioRad, (Catalogue #170-6404). All other chemicals were from conventional sources.
Buffers and solutions: PBST buffer: Sigma PBS made with 0.05% Tween 20. PBST with 0.5% BSA was made by dissolving […] BSA in 100 mL PBST. Blocking solution was 3% NFDM in PBST. Conjugate diluent was 1% NFDM in PBST. The coating buffer was 100 mM NaHCO3 pH8.2. The HRPO Stop Solution was 2 M H2SO4.
Coating the plates: The Aβ globulomer to be tested was diluted to 1.0 μg/mL in coating buffer. 100 μL were added to each well to be coated. Plate was sealed with sealing film and left at 4° C. overnight.
Plate Blocking: The coating solution was removed from the wells. Each well was optionally washed 2-3× with 150 μL of PBST. 300 μL of blocking solution were added (3% NFDM in PBST). Plate was covered with plate sealing film and incubated for ˜2 hrs at room temperature, with agitation.
Primary Antibody: The blocking solution was removed from the wells. Each well was optionally washed 2-3× with 150 μL of PBST. 100 μL of primary antibody solutions were added. For the full length N-Met Aβ(1-42) globulomer, solutions of 0.04 to 100 μg/mL of antibody 5F7 were used. The antibody was diluted using PBST with 0.5% BSA. The plate was covered with plate sealing film and incubated for ˜2 to 3 hrs at room temperature with agitation.
Secondary Antibody (HRPO Conjugate): The primary antibody solution was removed from the wells. Each well was washed 2-3× with 150 μL of PBST. 200 μL of secondary antibody (HRPO conjugate) solution diluted 1:5000 in PBST with 1% NFDM were added. […]
Substrate Development: The conjugate solution was removed from the wells. […] Absorbance at 450 nm was read using a microtiterplate reader within 30 min of addition of the stop solution.

[4] = tested on: Alzheimer Disease transgenic mice; conditions: active immunization, cited from earlier work

Row | Substance | recognition by Aβ globulomer-specific antibody 7C6 in dot blot [1] | recognition by polyclonal rabbit serum 5599 in dot blot [2] | binding of the globulomer-specific monoclonal antibody 5F7 (direct ELISA response) [3] | homogeneity of oligomers in sedimentation velocity experiments (FIG. 5A-5C) | other results
1 | Thermolysin truncation of Aβ(1-42) globulomer [example 5j] | comparable recognition | comparable recognition |  |  | 
2 | Dissulfide stabilized (17C, 34C) N-Met Aβ(1-42) oligomer [example 2a] |  |  | almost identical | formed homogeneous oligomers | display of the globulomer-specific epitope ([3]; mAb 5F7): still displays the globulomer-specific epitope; hydrodynamic properties relative to wild-type N-Met Aβ(1-42) (truncated) globulomer (FIG. 5A-5C): displayed better hydrodynamic properties
3 | Thermolysin truncation of disulfide-stabilized (15C, 36C) N-Met Aβ(1-42) oligomer [example 5b] | only recognized by the polyclonal rabbit serum 5599 | recognized by the polyclonal rabbit serum 5599 |  |  | 
4 | N-Met Aβ(1-42) globulomer [reference compound] |  |  | almost identical | formed homogeneous oligomers | hydrodynamic homogeneity after truncation at residue 20 by thermolysin (presence (FIG. 5B) and absence (FIG. 5C) of 0.05% SDS): too heterogeneous to be examined
5 | Aβ(1-42) globulomer [example 4j] | do not detect | do not detect |  |  | 
6 | Aβ(20-42) truncated globulomer: obtained by subjecting an Aβ(1-42) globulomer to thermolysin proteolysis (FAEDVGSNKGAIIGLMVGGVVIA; also: truncated globulomer) |  |  |  |  | reversal of deficits in novel object recognition task ([4]; AD transgenic mouse models): proven to reverse deficits in novel object recognition task; reversing cognitive defects in Alzheimer Disease transgenic mice [4]: effective in reversing cognitive defects
